In US12514251B2, “Fused heterocyclic compounds and their use as pest control agents” (priority 2020, dated 2026):

Tested on: Plutella xylostella
Assay: Plutella xylostella, leaf dip method
Format: in vivo
Settings: foliar, cabbage leaf dip, second instar larvae, 72 h after release, dead + moribund vs untreated control, read-out: percent mortality
Description: The leaf dip method was used for testing, wherein the required quantity of the compound was weighed and dissolved in a tube containing solvent solution. The tube was put on a vortex at 2000 rpm for 90 min for proper mixing, then diluted with 0.01% Triton-X solution to get the desired test concentration. Cabbage leaves were dipped in the compound solution for 10 seconds, shade dried for 20 min and then transferred into the cells of bioassay trays. A single second instar larva was released into each cell and the tray was covered with a lid. The bio-assay trays were then kept under laboratory conditions at a temperature of 25° C. and a relative humidity of 70%. Observations on dead, moribund and alive larvae were recorded 72 h after the release. Percent mortality was calculated by combining dead and moribund larvae and comparing the result to the one of the untreated control.

Structure (SMILES)	mortality at 300 ppm
CCS(=O)(=O)c1ccc(-n2cncn2)nc1-c1ccn2nc(C(F)(F)F)cc2n1 [Compound 3, 5-(3-(ethylsulfonyl)-6-(1H-1,2,4-triazol-1-yl)pyridin-2-yl)-2-(trifluoromethyl)pyrazolo[1,5-a]pyrimidine]	≥ 70%
CCS(=O)(=O)c1ccc(N2CCn3c(nnc3C(F)(F)F)C2)nc1-c1ccn2nc(C(F)(F)F)cc2n1 [Compound 6, 7-(5-(ethylsulfonyl)-6-(2-(trifluoromethyl)pyrazolo[1,5-a]pyrimidin-5-yl)pyridin-2-yl)-3-(trifluoromethyl)-5,6,7,8-tetrahydro-[1,2,4]triazolo[4,3-a]pyrazine]	≥ 70%
CCS(=O)(=O)c1ccc(-n2ncn(-c3ccc(OC(F)(F)F)cc3)c2=O)nc1-c1ccn2nc(C(F)(F)F)cc2n1 [Compound 10, 2-(5-(ethylsulfonyl)-6-(2-(trifluoromethyl)pyrazolo[1,5-a]pyrimidin-5-yl)pyridin-2-yl)-4-(4-(trifluoromethoxy)phenyl)-2,4-dihydro-3H-1,2,4-triazol-3-one]	≥ 70%
CCS(=O)(=O)c1ccc(-c2ccccc2)nc1-c1ccn2nc(C(F)(F)F)cc2n1 [Compound 15, 5-(3-(ethylsulfonyl)-6-phenylpyridin-2-yl)-2-(trifluoromethyl)pyrazolo[1,5-a]pyrimidine]	≥ 70%
CCS(=O)(=O)c1ccc(-c2ccc(F)cc2)nc1-c1ccn2nc(C(F)(F)F)cc2n1 [Compound 16, 5-(3-(ethylsulfonyl)-6-(4-fluorophenyl)pyridin-2-yl)-2-(trifluoromethyl)pyrazolo[1,5-a]pyrimidine]	≥ 70%
CCS(=O)(=O)c1ccc(-c2ccc(C#N)cc2)nc1-c1ccn2nc(C(F)(F)F)cc2n1 [Compound 18, 4-(5-(ethylsulfonyl)-6-(2-(trifluoromethyl)pyrazolo[1,5-a]pyrimidin-5-yl)pyridin-2-yl)benzonitrile]	≥ 70%
CCS(=O)(=O)c1ccc(-c2ccc(Cl)cc2)nc1-c1ccn2nc(C(F)(F)F)cc2n1 [Compound 20, 5-(6-(4-chlorophenyl)-3-(ethylsulfonyl)pyridin-2-yl)-2-(trifluoromethyl)pyrazolo[1,5-a]pyrimidine]	≥ 70%
CCS(=O)(=O)c1ccc(-c2cccc(C#N)c2)nc1-c1ccn2nc(C(F)(F)F)cc2n1 [Compound 23, 3-(5-(ethylsulfonyl)-6-(2-(trifluoromethyl)pyrazolo[1,5-a]pyrimidin-5-yl)pyridin-2-yl)benzonitrile]	≥ 70%
CCS(=O)(=O)c1ccc(-n2nc3ccc(C(F)(F)F)cn3c2=O)nc1-c1ccn2nc(C(F)(F)F)cc2n1 [Compound 27, 2-(5-(ethylsulfonyl)-6-(2-(trifluoromethyl)pyrazolo[1,5-a]pyrimidin-5-yl)pyridin-2-yl)-6-(trifluoromethyl)-[1,2,4]triazolo[4,3-a]pyridin-3(2H)-one]	≥ 70%
CCS(=O)(=O)c1ccc(-c2ccc(OC(F)(F)C(F)F)cc2)nc1-c1ccn2nc(C(F)(F)F)cc2n1 [Compound 28, 5-(3-(ethylsulfonyl)-6-(4-(1,1,2,2-tetrafluoroethoxy)phenyl)pyridin-2-yl)-2-(trifluoromethyl)pyrazolo[1,5-a]pyrimidine]	≥ 70%
CCS(=O)(=O)c1cc(-c2ccn3nc(C(F)(F)F)cc3n2)cnc1-n1cncn1 [Compound 31, 5-(5-(ethylsulfonyl)-6-(1H-1,2,4-triazol-1-yl)pyridin-3-yl)-2-(trifluoromethyl)pyrazolo[1,5-a]pyrimidine]	≥ 70%
CCSc1cc(-n2cncn2)cnc1-c1ccn2nc(C(F)(F)F)cc2n1 [Compound 32, 5-(3-(ethylthio)-5-(1H-1,2,4-triazol-1-yl)pyridin-2-yl)-2-(trifluoromethyl)pyrazolo[1,5-a]pyrimidine]	≥ 70%
CCSc1ccc(-n2cncn2)nc1-c1cnc2cc(C(F)(F)F)nn2c1 [Compound 40, 6-(3-(ethylthio)-6-(1H-1,2,4-triazol-1-yl)pyridin-2-yl)-2-(trifluoromethyl)pyrazolo[1,5-a]pyrimidine]	≥ 70%
CCS(=O)(=O)c1ccc(-c2ccc(Cl)cc2)nc1-c1cnc2nc(C(F)(F)F)nn2c1 [Compound 47, 6-(6-(4-chlorophenyl)-3-(ethylsulfonyl)pyridin-2-yl)-2-(trifluoromethyl)-[1,2,4]triazolo[1,5-a]pyrimidine]	≥ 70%
CCS(=O)(=O)c1ccc(-n2cncn2)nc1-c1cnc2cc(C(F)(F)F)nn2c1 [Compound 54, 6-(3-(ethylsulfonyl)-6-(1H-1,2,4-triazol-1-yl)pyridin-2-yl)-2-(trifluoromethyl)pyrazolo[1,5-a]pyrimidine]	≥ 70%
CCSc1cc(-c2ccnn2C)cnc1-c1ccn2nc(C(F)(F)F)cc2n1 [Compound 67, 5-(3-(ethylthio)-5-(1-methyl-1H-pyrazol-5-yl)pyridin-2-yl)-2-(trifluoromethyl)pyrazolo[1,5-a]pyrimidine]	≥ 70%

Structure (SMILES)	mortality at 300 ppm
CCS(=O)(=O)c1cc(-n2cnc(C)n2)cnc1-c1ccn2nc(C(F)(F)F)cc2n1 [Compound 69, 5-(3-(ethylsulfonyl)-5-(3-methyl-1H-1,2,4-triazol-1-yl)pyridin-2-yl)-2-(trifluoromethyl)pyrazolo[1,5-a]pyrimidine]	≥ 70%
CCS(=O)(=O)c1cc(-c2ccnn2C)cnc1-c1ccn2nc(C(F)(F)F)cc2n1 [Compound 71, 5-(3-(ethylsulfonyl)-5-(1-methyl-1H-pyrazol-5-yl)pyridin-2-yl)-2-(trifluoromethyl)pyrazolo[1,5-a]pyrimidine]	≥ 70%
CCS(=O)(=O)c1cc(-c2cc(C(F)(F)F)nn2C)cnc1-c1ccn2nc(C(F)(F)F)cc2n1 [Compound 78, 5-(3-(ethylsulfonyl)-5-(1-methyl-3-(trifluoromethyl)-1H-pyrazol-5-yl)pyridin-2-yl)-2-(trifluoromethyl)pyrazolo[1,5-a]pyrimidine]	≥ 70%
CCS(=O)(=O)c1cc(-c2ccn3nc(C(F)(F)F)cc3n2)cnc1-n1ncn(-c2ccc(Cl)cc2)c1=O [Compound 80, 4-(4-chlorophenyl)-2-(3-(ethylsulfonyl)-5-(2-(trifluoromethyl)pyrazolo[1,5-a]pyrimidin-5-yl)pyridin-2-yl)-2,4-dihydro-3H-1,2,4-triazol-3-one]	≥ 70%
CCS(=O)(=O)c1cc(-n2cc(Br)cn2)cnc1-c1ccn2nc(C(F)(F)F)cc2n1 [Compound 88, 5-(5-(4-bromo-1H-pyrazol-1-yl)-3-(ethylsulfonyl)pyridin-2-yl)-2-(trifluoromethyl)pyrazolo[1,5-a]pyrimidine]	≥ 70%
CCS(=O)(=O)c1cc(-n2cc(Cl)cn2)cnc1-c1ccn2nc(C(F)(F)F)cc2n1 [Compound 89]	≥ 70%
CCS(=O)(=O)c1cc(-c2cncnc2)cnc1-c1ccn2nc(C(F)(F)F)cc2n1 [Compound 95, 5-(3-(ethylsulfonyl)-5-(pyrimidin-5-yl)pyridin-2-yl)-2-(trifluoromethyl)pyrazolo[1,5-a]pyrimidine]	≥ 70%
CCS(=O)(=O)c1cc(-c2cnn(C)c2)cnc1-c1ccn2nc(C(F)(F)F)cc2n1 [Compound 97, 5-(3-(ethylsulfonyl)-5-(1-methyl-1H-pyrazol-4-yl)pyridin-2-yl)-2-(trifluoromethyl)pyrazolo[1,5-a]pyrimidine]	≥ 70%
CCS(=O)(=O)c1cc(-c2cc(Cl)cc(Cl)c2)cnc1-c1ccn2nc(C(F)(F)F)nc2n1 [Compound 102, 5-(5-(3,5-dichlorophenyl)-3-(ethylsulfonyl)pyridin-2-yl)-2-(trifluoromethyl)-[1,2,4]triazolo[1,5-a]pyrimidine]	≥ 70%
CCS(=O)(=O)c1cc(-c2cc(F)cc(F)c2)cnc1-c1ccn2nc(C(F)(F)F)nc2n1 [Compound 103, 5-(5-(3,5-difluorophenyl)-3-(ethylsulfonyl)pyridin-2-yl)-2-(trifluoromethyl)-[1,2,4]triazolo[1,5-a]pyrimidine]	≥ 70%
CCS(=O)(=O)c1cc(-c2ccc(OC(F)(F)C(F)F)cc2)cnc1-c1ccn2nc(C(F)(F)F)nc2n1 [Compound 104, 5-(3-(ethylsulfonyl)-5-(4-(1,1,2,2-tetrafluoroethoxy)phenyl)pyridin-2-yl)-2-(trifluoromethyl)-[1,2,4]triazolo[1,5-a]pyrimidine]	≥ 70%
CCS(=O)(=O)c1cc(-c2ccc(F)cc2)cnc1-c1ccn2nc(C(F)(F)F)nc2n1 [Compound 105, 5-(3-(ethylsulfonyl)-5-(4-fluorophenyl)pyridin-2-yl)-2-(trifluoromethyl)-[1,2,4]triazolo[1,5-a]pyrimidine]	≥ 70%
CCS(=O)(=O)c1cc(-c2cccc(C(F)(F)F)c2)cnc1-c1ncc2nc(C(F)(F)F)n(C)c2n1 [Compound 117, 2-(3-(ethylsulfonyl)-5-(3-(trifluoromethyl)phenyl)pyridin-2-yl)-9-methyl-8-(trifluoromethyl)-9H-purine]	≥ 70%
CCS(=O)(=O)c1cc(-c2ccc(F)cc2)cnc1-c1ncc2nc(C(F)(F)F)n(C)c2n1 [Compound 118, 2-(3-(ethylsulfonyl)-5-(4-fluorophenyl)pyridin-2-yl)-9-methyl-8-(trifluoromethyl)-9H-purine]	≥ 70%
CCS(=O)(=O)c1cc(-c2ccc(OC(F)(F)F)cc2)cnc1-c1ncc2nc(C(F)(F)F)n(C)c2n1 [Compound 119, 2-(3-(ethylsulfonyl)-5-(4-(trifluoromethoxy)phenyl)pyridin-2-yl)-9-methyl-8-(trifluoromethyl)-9H-purine]	≥ 70%
CCS(=O)(=O)c1cc(-c2cc(C(F)(F)F)nn2C)cnc1-c1ncc2nc(C(F)(F)F)n(C)c2n1 [Compound 121, 2-(3-(ethylsulfonyl)-5-(1-methyl-3-(trifluoromethyl)-1H-pyrazol-5-yl)pyridin-2-yl)-9-methyl-8-(trifluoromethyl)-9H-purine]	≥ 70%
